Experimental data: ChEMBL document CHEMBL1142847, “New orally active spiro 1,2,4-trioxanes with high antimalarial potency” (2005)

Legend:
Format in all cases: functional
[1] = Number of Swiss mice (Mus musculus) alive in a batch of 5 infected with multidrug-resistant Plasmodium yoelii, on day 28 after intramuscular administration of 96 mg/kg/day dose
Rattus norvegicus [2] = assay: Number of Swiss mice (Mus musculus) alive in a batch of 5 infected with multidrug-resistant Plasmodium yoelii, on day 28 after peroral administration of 96 mg/kg/day dose; conditions: route oral
Rattus norvegicus [3] = assay: Number of Swiss mice (Mus musculus) alive in a batch of 5 infected with multidrug-resistant Plasmodium yoelii, on day 28 after oral administration of 24 mg/kg/day dose
Rattus norvegicus [4] = assay: Number of Swiss mice (Mus musculus) alive in a batch of 5 infected with multidrug-resistant Plasmodium yoelii, on day 28 after peroral administration of 48 mg/kg/day dose; conditions: route oral

Row | SMILES | Activity [1] | Activity (Rattus norvegicus [2]) | Activity (Rattus norvegicus [3]) | Activity (Rattus norvegicus [4])
1 | C=C(c1ccccc1)C1COC2(CCC(=C(C)C(=O)OCC)CC2)OO1 (stereo not drawn) | 0 | 0 |  | 
2 | C=C(c1ccccc1)C1COC2(CCC(O)(c3ccccc3)CC2)OO1 (stereo not drawn) | 0 | 0 |  | 
3 | C=C(c1ccccc1)C1COC2(CCC(OC(=O)CCC(=O)O)CC2)OO1 (stereo not drawn) | 0 | 0 |  | 
4 | C=C(c1ccccc1)C1COC2(CCC(C)(O)CC2)OO1 (stereo not drawn) | 2 | 0 |  | 
5 | C=C(c1ccccc1)C1COC2(CCC(=CC(=O)OCC)CC2)OO1 (stereo not drawn) | 2 | 5 | 0 | 5
6 | C=C(c1ccccc1)C1COC2(CCC(O)CC2)OO1 (stereo not drawn) | 0 | 0 |  | 
7 | C=C(c1ccc(-c2ccccc2)cc1)C1COC2(CCC(O)(CC(=O)OCC)CC2)OO1 (stereo in doubt; form 1) | 0 | 0 |  | 
8 | C=C(c1ccc(-c2ccccc2)cc1)C1COC2(CCC(O)CC2)OO1 (stereo not drawn) | 2 | 0 |  | 
9 | C=C(c1ccc(-c2ccccc2)cc1)C1COC2(CCC(=C(C)C(=O)OCC)CC2)OO1 (stereo not drawn) | 0 | 2 |  | 0
10 | C=C(c1ccc(-c2ccccc2)cc1)C1COC2(CCC(OC(=O)CCC(=O)O)CC2)OO1 (stereo not drawn) | 0 | 0 |  | 
11 | C=C(c1ccccc1)C1COC2(CCC(O)(CC(=O)OCC)CC2)OO1 (stereo in doubt; form 1) | 0 | 0 |  | 
12 | C=C(c1ccc(-c2ccccc2)cc1)C1COC2(CCC(=CC(=O)OCC)CC2)OO1 (stereo not drawn) | 0 | 5 |  | 0
